Results reported in patent US8188284B2, “2-aminoquinolines” (Hoffman-La Roche Inc., priority 2008, dated 2012).
Blank lines part the entries; values can stand above or below the molecule they belong to.

Key:
[1] = target: T1, recombinant human 5-HT5A receptor (Homo sapiens, UniProt P47898); test: [3H]LSD radioligand binding assay; conditions: [3H]LSD (approximately 1 nM), membranes from HEK-EBNA cells transiently expressing 5-HT5A receptors; Ki calculated from IC50 using the Cheng-Prussoff equation; read-out: Ki/nM 5-HT5A
T1 construct: expressed in transfected cells; host or cells: HEK-EBNA (Human Embryonic Kidney-EBNA) cells, transient cDNA expression, membranes
T1 sequence (P47898 whole entry): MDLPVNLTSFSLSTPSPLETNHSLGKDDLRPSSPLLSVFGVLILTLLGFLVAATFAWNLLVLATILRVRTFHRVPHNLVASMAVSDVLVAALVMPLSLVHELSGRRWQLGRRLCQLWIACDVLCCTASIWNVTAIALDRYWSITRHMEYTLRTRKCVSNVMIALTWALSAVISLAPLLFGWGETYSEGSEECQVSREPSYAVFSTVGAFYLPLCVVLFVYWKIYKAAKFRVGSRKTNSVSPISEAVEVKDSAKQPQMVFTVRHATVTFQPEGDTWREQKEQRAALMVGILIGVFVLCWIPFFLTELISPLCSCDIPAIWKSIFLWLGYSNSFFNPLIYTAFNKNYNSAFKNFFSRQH
Protocol: A [^3H]LSD radioligand binding assay was used to determine the affinity of the compounds for the recombinant human 5-HT5A receptor, in membranes from transiently (cDNA) expressed 5-HT5A receptors in Human Embryonic Kidney-EBNA (HEK-EBNA) cells. Assay buffer consisted of Tris (50 mM) buffer containing 1 mM EGTA, 10 mM MgCl2 (pH 7.4) and 10 μM pargyline. The binding assay was carried out in 96-well-plates in the presence of [^3H]LSD (approximately 1 nM), approximately 2 μg/well of membrane protein, and 0.5 mg of Ysi-poly-1-lysine SPA beads in a final volume of 200 μl of buffer. Non-specific binding was defined using methiothepin 2 μM. Compounds were tested at 10 concentrations. All assays were conducted in duplicate and repeated at least two times. Assay plates were incubated for 120 min at room temperature before centrifugation. Bound ligand was determined using a Packard Topcount scintillation counter. IC50 values were calculated using a non-linear curve fitting program and Ki values calculated using the Cheng-Prussoff equation.

SMILES: Cc1cc(C)nc(Nc2ccc3nc(NC4COc5ccccc54)ccc3c2)n1 (racemic) [Example 97, rac-N^2-(2,3-Dihydro-benzofuran-3-yl)-N^6-(4,6-dimethyl-pyrimidin-2-yl)-quinoline-2,6-diamine]
melting point: 213 °C

SMILES: FC(F)(F)c1ccnc(Nc2ccc3nc(NC4COc5ccccc54)ccc3c2)n1 (racemic) [Example 98, rac-N^2-(2,3-Dihydro-benzofuran-3-yl)-N^6-(4-trifluoromethyl-pyrimidin-2-yl)-quinoline-2,6-diamine]
melting point: 128 °C

SMILES: Cc1cc(Nc2ccc3nc(NC4COc5ccccc54)ccc3c2)no1 (racemic) [Example 101, rac-N^2-(2,3-Dihydro-benzofuran-3-yl)-N^6-(5-methyl-isoxazol-3-yl)-quinoline-2,6-diamine]
melting point: 195 °C

SMILES: Fc1ccc2c(c1)CCC2Nc1ccc2cc(Nc3nccc(C(F)(F)F)n3)ccc2n1 (racemic) [Example 103, rac-N^2-(5-Fluoro-indan-1-yl)-N^6-(4-trifluoromethyl-pyrimidin-2-yl)-quinoline-2,6-diamine]
melting point: 112 °C
Ki [1]: 13.7 nM

SMILES: COc1cccc2c1C(Nc1ccc3cc(Nc4cccc(C(F)(F)F)n4)ccc3n1)CO2 (racemic) [Example 109, rac-N^2-(4-Methoxy-2,3-dihydro-benzofuran-3-yl)-N^6-(6-trifluoromethyl-pyridin-2-yl)-quinoline-2,6-diamine]
melting point: 132 °C
Ki [1]: 26.1 nM

SMILES: COc1cccc2c1C(Nc1ccc3cc(Nc4nccc(C(F)(F)F)n4)ccc3n1)CO2 (racemic) [Example 110, rac-N^2-(4-Methoxy-2,3-dihydro-benzofuran-3-yl)-N^6-(4-trifluoromethyl-pyrimidin-2-yl)-quinoline-2,6-diamine]
melting point: 185 °C
Ki [1]: 11.8 nM

SMILES: COc1cccc2c1C(Nc1ccc3cc(Nc4cc(C)on4)ccc3n1)CO2 (racemic) [Example 113, rac-N^2-(4-Methoxy-2,3-dihydro-benzofuran-3-yl)-N^6-(5-methyl-isoxazol-3-yl)-quinoline-2,6-diamine]
melting point: 222 °C
Ki [1]: 14.4 nM

SMILES: O=C(NCc1ccc(F)cc1)c1ccc2nc(N[C@@H]3CCc4ccccc43)ccc2c1 [Example 52, 2-((R)-Indan-1-ylamino)-quinoline-6-carboxylic acid 4-fluoro-benzylamide]
melting point: 175 °C

SMILES: COc1ccccc1CNC(=O)c1ccc2nc(N[C@@H]3CCc4ccccc43)ccc2c1 [Example 55, 2-((R)-Indan-1-ylamino)-quinoline-6-carboxylic acid 2-methoxy-benzylamide]
melting point: 168 °C
Ki [1]: 281 nM

SMILES: ON=C(c1ccc(F)cc1)c1ccc2nc(N[C@@H]3CCc4ccccc43)ccc2c1 [Example 56, (4-Fluoro-phenyl)-[2-((R)-indan-1-ylamino)-quinolin-6-yl]-methanone oxime]
melting point: 225.5 °C
Ki [1]: 141 nM

SMILES: c1cnc(Nc2ccc3nc(N[C@@H]4CCc5ccccc54)ccc3c2)nc1 [Example 66, N^2—(R)-Indan-1-yl-N6-pyrimidin-2-yl-quinoline-2,6-diamine]
melting point: 142 °C
Ki [1]: 23.2 nM

SMILES: Cc1cc(C)nc(Nc2ccc3nc(N[C@@H]4CCc5ccccc54)ccc3c2)n1 [Example 67, N^6-(4,6-Dimethyl-pyrimidin-2-yl)-N^2—(R)-indan-1-yl-quinoline-2,6-diamine]
melting point: 88 °C
Ki [1]: 15.7 nM

SMILES: Cc1ccnc(Nc2ccc3nc(N[C@@H]4CCc5ccccc54)ccc3c2)n1 [Example 68, N^2—(R)-Indan-1-yl-N^6-(4-methyl-pyrimidin-2-yl)-quinoline-2,6-diamine]
melting point: 103 °C
Ki [1]: 20 nM

SMILES: c1ccc(Nc2ccc3nc(N[C@@H]4CCc5ccccc54)ccc3c2)nc1 [Example 69, N^2—(R)-Indan-1-yl-N^6-pyridin-2-yl-quinoline-2,6-diamine]
melting point: 77 °C
Ki [1]: 20.4 nM

SMILES: FC(F)(F)c1ccnc(Nc2ccc3nc(N[C@@H]4CCc5ccccc54)ccc3c2)n1 [Example 73, N^2—(R)-Indan-1-yl-N^6-(4-trifluoromethyl-pyrimidin-2-yl)-quinoline-2,6-diamine]
melting point: 165 °C
Ki [1]: 11 nM

SMILES: CC(C)(C)n1nnc(Nc2ccc3nc(N[C@@H]4CCc5ccccc54)ccc3c2)n1 [Example 75, N^6-(2-tert-Butyl-2H-tetrazol-5-yl)-N^2—(R)-indan-1-yl-quinoline-2,6-diamine]
melting point: 146 °C
Ki [1]: 25.9 nM

SMILES: c1ccc2c(c1)CC[C@H]2Nc1ccc2cc(Nc3nnc(C4CC4)o3)ccc2n1 [Example 76, N^6-(5-Cyclopropyl-[1,3,4]oxadiazol-2-yl)-N^2—(R)-indan-1-yl-quinoline-2,6-diamine]
melting point: 226 °C
Ki [1]: 24.8 nM

SMILES: Cc1nnc(Nc2ccc3nc(N[C@@H]4CCc5ccccc54)ccc3c2)o1 [Example 77, N^2—(R)-Indan-1-yl-N^6-(5-methyl-[1,3,4]oxadiazol-2-yl)-quinoline-2,6-diamine]
melting point: 129 °C
Ki [1]: 21.2 nM

SMILES: CN(c1ccc2nc(N[C@@H]3CCc4ccccc43)ccc2c1)c1ccccn1 [Example 85, N^2—(R)-Indan-1-yl-N^6-methyl-N^6-pyridin-2-yl-quinoline-2,6-diamine]
Ki [1]: 225 nM

Continued by falling Ki [1], values first:

melting point: 109 °C
Ki [1]: 9.6 nM
SMILES: OCCc1cccc(Nc2ccc3nc(N[C@@H]4CCc5ccccc54)ccc3c2)c1 [Example 83, 2-{3-[2-((R)-Indan-1-ylamino)-quinolin-6-ylamino]-phenyl}-ethanol]

melting point: 145 °C
Ki [1]: 9.1 nM
SMILES: COc1cccc2c1C(Nc1ccc3cc(Nc4nc(C)cc(C)n4)ccc3n1)CO2 (racemic) [Example 111, rac-N^6-(4,6-Dimethyl-pyrimidin-2-yl)-N^2-(4-methoxy-2,3-dihydro-benzofuran-3-yl)-quinoline-2,6-diamine]

melting point: 127 °C
Ki [1]: 8.7 nM
SMILES: Cc1cc(Nc2ccc3nc(N[C@@H]4CCc5ccccc54)ccc3c2)no1 [Example 74, N^2—(R)-Indan-1-yl-N^6-(5-methyl-isoxazol-3-yl)-quinoline-2,6-diamine]

melting point: 72 °C
Ki [1]: 7.7 nM
SMILES: Cc1cccc(Nc2ccc3nc(N[C@@H]4CCc5ccccc54)ccc3c2)n1 [Example 72, N^2—(R)-Indan-1-yl-N^6-(6-methyl-pyridin-2-yl)-quinoline-2,6-diamine]

melting point: 166 °C
Ki [1]: 7.3 nM
SMILES: Cc1cc(Nc2ccc3nc(NC4CCc5cc(F)ccc54)ccc3c2)no1 (racemic) [Example 106, rac-N^2-(5-Fluoro-indan-1-yl)-N^6-(5-methyl-isoxazol-3-yl)-quinoline-2,6-diamine]

melting point: 126 °C
Ki [1]: 5.4 nM
SMILES: COc1cccc2c1C(Nc1ccc3cc(Nc4cccc(C(F)(F)F)n4)ccc3n1)CC2 (racemic) [Example 91, rac-N^2-(7-Methoxy-indan-1-yl)-N^6-(6-trifluoromethyl-pyridin-2-yl)-quinoline-2,6-diamine]

melting point: 196 °C
Ki [1]: 4.3 nM
SMILES: COc1cccc2c1C(Nc1ccc3cc(Nc4nccc(C(F)(F)F)n4)ccc3n1)CC2 (racemic) [Example 92, rac-N^2-(7-Methoxy-indan-1-yl)-N^6-(4-trifluoromethyl-pyrimidin-2-yl)-quinoline-2,6-diamine]

melting point: 109 °C
Ki [1]: 3.5 nM
SMILES: COc1cccc2c1C(Nc1ccc3cc(Nc4cc(C)on4)ccc3n1)CC2 (racemic) [Example 95, rac-N^2-(7-Methoxy-indan-1-yl)-N^6-(5-methyl-isoxazol-3-yl)-quinoline-2,6-diamine]

melting point: 150 °C
Ki [1]: 3.4 nM
SMILES: COc1cccc2c1C(Nc1ccc3cc(Nc4nc(C)cc(C)n4)ccc3n1)CC2 (racemic) [Example 93, rac-N^6-(4,6-Dimethyl-pyrimidin-2-yl)-N^2-(7-methoxy-indan-1-yl)-quinoline-2,6-diamine]
